Source: ChEMBL document CHEMBL4828778, “Novel Compounds as PHD Inhibitors for Treating Heart, Lung, Liver, and Kidney Diseases” (ACS Med Chem Lett, 2021)

Columns and labels:
Prolyl hydroxylase EGLN2 = Prolyl hydroxylase EGLN2 (Homo sapiens, UniProt Q96KS0); experiment: Inhibition of recombinant full length human N-terminal FLAG-tagged PHD1 expressed in baculovirus expression system using HIF1/C35 complex as substrate preincubated for 30 mins followed by substrate addition measured after 10 mins by TR-FRET assay
Egl nine homolog 1 = Egl nine homolog 1 (Homo sapiens, UniProt Q9GZT9); experiment: Inhibition of full length human N-terminal His-tagged/TEV cleavage fused PHD2 expressed in baculovirus infected insect cells using HIF1/C35 complex as substrate preincubated for 30 mins followed by substrate addition measured after 10 mins by TR-FRET assay
Prolyl hydroxylase EGLN3 = Prolyl hydroxylase EGLN3 (Homo sapiens, UniProt Q9H6Z9); experiment: Inhibition of recombinant full length human N-terminal 6His-tagged PHD3 expressed Escherichia coli using HIF1/C35 complex as substrate preincubated for 30 mins followed by substrate addition measured after 10 mins by TR-FRET assay

Measured: IC50

Chain of Prolyl hydroxylase EGLN2 (Q96KS0 whole entry, the tested form may be a part): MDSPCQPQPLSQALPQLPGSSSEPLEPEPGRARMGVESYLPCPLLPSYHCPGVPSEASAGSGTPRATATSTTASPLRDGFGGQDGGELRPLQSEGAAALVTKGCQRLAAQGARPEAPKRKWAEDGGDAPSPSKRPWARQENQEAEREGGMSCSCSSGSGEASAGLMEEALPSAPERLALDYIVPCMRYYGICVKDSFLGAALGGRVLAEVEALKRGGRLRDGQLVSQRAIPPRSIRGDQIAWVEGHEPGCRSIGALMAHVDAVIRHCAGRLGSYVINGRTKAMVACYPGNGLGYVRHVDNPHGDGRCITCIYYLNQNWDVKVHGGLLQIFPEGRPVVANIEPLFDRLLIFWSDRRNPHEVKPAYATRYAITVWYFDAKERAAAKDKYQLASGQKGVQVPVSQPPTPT
Chain of Egl nine homolog 1 (Q9GZT9 whole entry, the tested form may be a part): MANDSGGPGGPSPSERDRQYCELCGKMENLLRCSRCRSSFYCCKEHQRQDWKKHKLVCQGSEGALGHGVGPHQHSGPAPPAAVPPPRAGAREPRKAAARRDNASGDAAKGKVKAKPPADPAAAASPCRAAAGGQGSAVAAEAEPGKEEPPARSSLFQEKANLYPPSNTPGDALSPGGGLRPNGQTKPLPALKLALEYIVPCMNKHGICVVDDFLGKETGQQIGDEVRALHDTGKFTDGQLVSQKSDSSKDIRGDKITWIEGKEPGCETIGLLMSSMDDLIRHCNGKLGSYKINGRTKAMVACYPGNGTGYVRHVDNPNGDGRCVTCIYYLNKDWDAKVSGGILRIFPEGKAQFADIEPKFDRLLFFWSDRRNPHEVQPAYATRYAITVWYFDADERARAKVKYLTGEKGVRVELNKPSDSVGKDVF
Chain of Prolyl hydroxylase EGLN3 (Q9H6Z9 whole entry): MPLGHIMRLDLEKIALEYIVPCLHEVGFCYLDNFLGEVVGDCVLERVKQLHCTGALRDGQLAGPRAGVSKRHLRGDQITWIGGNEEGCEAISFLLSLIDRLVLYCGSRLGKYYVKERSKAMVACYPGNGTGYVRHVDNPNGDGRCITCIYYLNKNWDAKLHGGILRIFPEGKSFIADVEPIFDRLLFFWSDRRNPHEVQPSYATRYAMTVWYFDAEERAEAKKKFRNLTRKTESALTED

CS(=O)(=O)c1ccc(-n2ncc(-c3ccc(C#N)cc3)c2O)nc1
< 0.1 µM: all assays above

N#Cc1ccc(-c2cnn(-c3ccc(-c4nccs4)cn3)c2O)cc1
< 0.1 µM: all assays above

CCS(=O)(=O)Nc1ccc(-n2ncc(-c3ccc(C#N)cc3)c2O)nc1
< 0.1 µM: all assays above

N#Cc1ccc(-c2cnn(-c3ccc(N4CCCC4=O)cn3)c2O)cc1
< 0.1 µM: all assays above

CCC(=O)Nc1ccc(-n2ncc(-c3ccc(C#N)cc3)c2O)nc1
< 0.1 µM: all assays above

CC(=O)c1ccc(-n2ncc(-c3ccc(C#N)cc3)c2O)nc1
< 0.1 µM: all assays above
